What all share (assay type): physicochemical
The nature of data set [1]: Measurement of particle size distribution (sieving). Conditions: for Particle size distribution 300 to 1,000 μm: sieve fraction 300 to 1,000 μm; for Particle size distribution <300 μm: sieve fraction <300 μm; for Particle size distribution 1,000 μm<: sieve fraction above 1,000 μm. Here is the method: Measurement of Particle Size Distribution
The crystals were shifted using a microtype electromagnetic vibrating shifter (M-2 type, manufactured by Tsutsui Rikagaku Kikai Co., Ltd.), and their weight was measured, so that their particle size distribution was obtained. 20 g of the crystals was placed on a sieve with a mesh of 1,000 μm, and another sieve with a mesh of 300 μm was placed below the above sieve followed by vibration for 10 minutes.

Data set [2] in a line: Measurement of compression rate. Conditions: (volume 1−volume 2)/volume 1. As for the experimental part:
Measurement of Compression Rate
An approximately 7-cm^3 chloromandelic acid crystal was passed through a funnel with a diameter of 9 mm, and it was naturally dropped into a 10 ml measuring cylinder from a height of 20 cm, so that the volume of the crystals was measured (volume 1). Thereafter, the crystals in the measuring cylinder were compressed with a glass rod until their volume was not reduced, and the volume after the compression was measured (volume 2). Compression rate was calculated according to the following formula.
Compression rate=(volume 1−volume 2)/volume 1

A short description of data set [3]: Measurement of filling (packing) density. Conditions: natural drop into 50 ml measuring cylinder. As for the experimental part:
Measurement of Filling (Packing) Density
10 to 20 g of each of the crystals obtained in the above Examples and Comparative examples was weighed, and it was passed through a funnel with a diameter of 20 mm to naturally drop into a 50 ml measuring cylinder, so that the weight and volume of the crystals were measured and the filling density was calculated.

Data set [4] is described as follows: Appearance of crystals. The following applies: dried crystals. As for the experimental part:
Subsequently, the (R)-2-chloromandelic acid crystals obtained in Examples 1 to 6 and Comparative examples 1 and 2 were measured regarding appearance, water content, filling density, compression rate, and particle size distribution. Each of the above items was measured according to the following methods.

Data set [5] can be described thus: Adhesiveness (crystals adhering to test tube wall). The following applies: weight of adhering crystals / weight filled, test tube 16 mm. As for the experimental part:
Chloromandelic acid crystals were naturally dropped in a dry test tube having an inside diameter of 16 mm, so that the height of the crystals became approximately 10 cm. Thereafter, the test tube containing chloromandelic acid crystals was slowly inverted, so that the test tube was completely turned upside down and the crystals were dropped. Thereafter, the weight of the test tube was measured, and the weight of chloromandelic acid crystals adhered to the inner wall of the test tube was obtained. The ratio (%) of the weight of the adhering crystals to the weight of the initially filled chloromandelic acid crystals was defined as an index of adhesiveness.

Data set [6] in a line: Flowability (flow limit diameter through glass funnels). Conditions: minimum funnel inside diameter without blockage in 5 tests, 15 g crystals. As for the experimental part:
Glass funnels obtained by connecting glass tubes (cylindrical portions) having inside diameters of 4, 5, 6, 8, 9 and 11 mm with the edges of cones with apical angles of 60° were used. The outlet of each funnel (outlet of cylindrical portion) was closed. […] During this process, the funnel should not be shaken, and chloromandelic acid crystals should not be pushed into the funnel by compression. Thereafter, each funnel containing chloromandelic acid crystals was left at rest, the outlet of the cylindrical portion of each funnel was opened, and the crystals were naturally dropped from the outlets. This operation was carried out 5 times, using each of the above described funnels having cylindrical portions with inside diameters of 4, 5, 6, 8, 9 and 11 mm. Flow limit diameter (mm) was defined as a minimum inside diameter capable of naturally dropping the total amount of chloromandelic acid crystals in all of the above 5 tests with no blockage in the funnels. The flow limit diameter was defined as an index of fluidity.

The nature of data set [7]: Measurement of water content (Karl Fischer method). The following applies: for Water content: dried crystals, Karl Fischer. Here is the method:
Measurement of Water Content
Water content was measured by the Karl Fischer method.

Regarding `O=C(O)[C@H](O)c1ccccc1Cl` [Example 1, (R)-2-chloromandelic acid], in data set [1], the “Particle size distribution 300 to 1,000 μm” value stood at 73.5 weight %, the “Particle size distribution <300 μm” value worked out at 15.5 weight % and the “Particle size distribution 1,000 μm<” value was found to be 11.0 weight %. In data set [2], the Compression rate was found to be 0.03. For the same molecule, in data set [3], the Filling density was 0.65 g/mL. Further, the Appearance entry in data set [4] is recorded as “Granular”. Further, the Adhesion rate in data set [5] was 0.057%. Further, the Flow limit diameter in data set [6] is 5 mm. This molecule also displayed a Water content in data set [7] of 0.046 wt %.
As for `O=C(O)[C@H](O)c1ccccc1Cl` [Example 2, (R)-2-chloromandelic acid], in data set [1], the “Particle size distribution 300 to 1,000 μm” value came to 73.2 weight %, the “Particle size distribution <300 μm” value came to 18.2 weight % and the “Particle size distribution 1,000 μm<” value amounted to 8.0 weight %. In data set [2], the Compression rate was 0.03. For the same molecule, the Filling density in data set [3] came to 0.63 g/mL. Also, in data set [4], the Appearance entry is listed as “Granular”. Moreover, the Adhesion rate in data set [5] stood at 0.061%. For the same molecule, the Flow limit diameter in data set [6] was found to be 5 mm. The molecule further came in with a Water content in data set [7] of 0.049 wt %.
`O=C(O)[C@H](O)c1ccccc1Cl` [Example 3, (R)-2-chloromandelic acid]: in data set [1], the “Particle size distribution 300 to 1,000 μm” value amounted to 71.0 weight %, the “Particle size distribution <300 μm” value is 16.6 weight % and the “Particle size distribution 1,000 μm<” value amounted to 12.4 weight %. Also, in data set [2], the Compression rate is 0.03. In data set [3], this molecule yielded a Filling density of 0.63 g/mL. The Appearance result in data set [4] is given as “Granular”. Moreover, the Adhesion rate in data set [5] worked out at 0.058%. Further, the Flow limit diameter in data set [6] was 5 mm. This molecule also came in with a Water content in data set [7] of 0.058 wt %.
On to `O=C(O)[C@H](O)c1ccccc1Cl` [Example 4, (R)-2-chloromandelic acid], for which, in data set [1], the “Particle size distribution 300 to 1,000 μm” value is 72.2 weight %, the “Particle size distribution <300 μm” value amounted to 17.3 weight % and the “Particle size distribution 1,000 μm<” value was found to be 10.5 weight %. Also, in data set [2], the Compression rate is on record as 0.03. This molecule returned a Filling density in data set [3] of 0.68 g/mL. The Appearance entry in data set [4] is “Granular”. Also, the Adhesion rate in data set [5] is recorded as 0.110%. Also, the Flow limit diameter in data set [6] worked out at 5 mm. Also, the Water content in data set [7] stood at 0.062 wt %. In data set [7] (wet product after filtration and washing, before drying), the “Water content of crystal wet product” value is reported as 10 % by weight.
Consider `O=C(O)[C@H](O)c1ccccc1Cl` [Example 5, (R)-2-chloromandelic acid], for which, in data set [1], the “Particle size distribution 300 to 1,000 μm” value worked out at 73.1 weight %, the “Particle size distribution <300 μm” value turned out to be 18.4 weight % and the “Particle size distribution 1,000 μm<” value was 8.5 weight %. Also, in data set [2], the Compression rate is 0.03. The same molecule registered a Filling density in data set [3] of 0.68 g/mL. The Appearance result in data set [4] was “Granular”. Further, the Adhesion rate in data set [5] is listed as 0.130%. The molecule also yielded a Flow limit diameter in data set [6] of 5 mm. Also, the Water content in data set [7] is listed as 0.076 wt %.
On to `O=C(O)[C@H](O)c1ccccc1Cl` [Example 6, (R)-2-chloromandelic acid], for which, in data set [1], the “Particle size distribution 300 to 1,000 μm” value is reported as 71.3 weight %, the “Particle size distribution <300 μm” value is 19.0 weight % and the “Particle size distribution 1,000 μm<” value worked out at 9.7 weight %. Besides, the Compression rate in data set [2] stood at 0.03. This molecule also had a Filling density in data set [3] of 0.64 g/mL. The Appearance result in data set [4] is recorded as “Granular”. In data set [5], this molecule yielded an Adhesion rate of 0.140%. In data set [6], this molecule gave a Flow limit diameter of 5 mm. The molecule further came in with a Water content in data set [7] of 0.080 wt %.
For `O=C(O)[C@H](O)c1ccccc1Cl` [compound 1, (R)-2-chloromandelic acid, reference compound], in data set [1], the “Particle size distribution 300 to 1,000 μm” value amounted to 46.5 weight %, the “Particle size distribution <300 μm” value is 46.2 weight % and the “Particle size distribution 1,000 μm<” value stood at 7.3 weight %. Moreover, the Compression rate in data set [2] is 0.04. In addition, in data set [3], the Filling density turned out to be 0.68 g/mL. Also, the Appearance entry in data set [4] was “Fine”. The molecule also gave an Adhesion rate in data set [5] of 0.830%. The molecule also yielded a Flow limit diameter in data set [6] of 9 mm. Further, the Water content in data set [7] amounted to 0.110 wt %.
On to `O=C(O)[C@H](O)c1ccccc1Cl` [compound 2, (R)-2-chloromandelic acid, reference compound], for which, in data set [1], the “Particle size distribution 300 to 1,000 μm” value worked out at 71.3 weight %, the “Particle size distribution <300 μm” value is recorded as 24.6 weight % and the “Particle size distribution 1,000 μm<” value is listed as 4.1 weight %. The Compression rate in data set [2] is on record as 0.62. Besides, in data set [3], the Filling density was 0.29 g/mL. In data set [4], the Appearance result is given as “Scale”. The molecule further returned an Adhesion rate in data set [5] of 0.500%. Besides, in data set [6], the Flow limit diameter amounted to 11 mm. For the same molecule, the Water content in data set [7] is 0.005 wt %.

The values are drawn from patent US20040242693A1, “Optically active mandelic acid and its derivative, and method for crystallization thereof” (priority 2001, published 2004).
